Entries after “also recorded” stand apart in the source; their conditions may differ.
Columns and labels:
recombinant human SphK1 = molecular target: recombinant human SphK1; set-up: method as in PMID 21216217; details: determined previously; cited from earlier work
human SphK1 [1] = molecular target: T1, human SphK1 (Homo sapiens, UniProt Q9NYA1); experiment: yeast growth rescue assay, strain CBY169 expressing human SphK1; format: cell-based; details: for rescue of growth in galactose media: strain CBY169 expressing human SphK1
T1 construct: constructed by sub-cloning DNA encoding the indicated translational open reading frames into the pYES2-FLAG-URA expression vector; expressed in transfected cells; host or cells: Saccharomyces cerevisiae CBY169 or KYA1, plasmid pGAL-HsSPHK1
T1 sequence (Q9NYA1 whole entry): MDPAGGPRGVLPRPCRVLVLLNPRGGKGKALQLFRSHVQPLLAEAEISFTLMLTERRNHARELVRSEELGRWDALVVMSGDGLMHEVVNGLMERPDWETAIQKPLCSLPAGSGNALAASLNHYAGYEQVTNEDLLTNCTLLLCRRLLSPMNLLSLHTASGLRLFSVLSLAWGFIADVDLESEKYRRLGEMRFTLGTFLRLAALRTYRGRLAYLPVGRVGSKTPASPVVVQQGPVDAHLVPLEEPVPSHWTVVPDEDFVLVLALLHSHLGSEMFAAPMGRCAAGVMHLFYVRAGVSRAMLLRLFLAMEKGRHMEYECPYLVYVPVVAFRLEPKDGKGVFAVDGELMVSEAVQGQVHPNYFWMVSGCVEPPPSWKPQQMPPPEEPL
Text: (§1) The plasmids pGAL-HsSPHK1, pGAL-HsSPHK2, pGAL-MmSphk1, pGAL-MmSphk1L277M, pGAL-MmSphk2, pGAL-HsCERK and pGAL-SK2_MOD used in this study were constructed by sub-cloning DNA encoding the indicated translational open reading frames into the pYES2-FLAG-URA expression vector (provided by Dr. Cungui Mao). […] Excepting human and mouse SphK2, the DNA sequences are synthetic (from GeneWiz LLC (South Plainfield, NJ)) and were optimized for expression in S. cerevisiae.
(§2) Yeast harboring plasmids were selected and maintained on synthetic complete media lacking uracil (SC-URA) with 2% glucose as the fermentable carbon source. After overnight growth at 30°C in this media, the cultures were diluted 1:100 into SC-URA media supplemented with 2% galactose and various concentrations of test inhibitor. After a further 24–48 hours incubation at 30°C, the extent of growth was assessed by measuring absorbance at 600 nm. […] Tubes were incubated in a rotating drum while plates were agitated using a plate mixer. A600 for 96-well plate cultures was determined using a Molecular Devices SpectraMax M5 plate reader. Test compounds were dissolved in DMSO at 40–50 mM and diluted into water containing 0.1% fatty acid free bovine serum albumin. In all cases, the DMSO concentration in the assay was less than 2% (v/v).

human CerK = molecular target: T2, human CerK (Homo sapiens, UniProt Q8TCT0); experiment: yeast growth rescue assay, strain JS1256 (WT) expressing human CerK; format: cell-based; details: galactose media
T2 construct: constructed by sub-cloning DNA encoding the indicated translational open reading frames into the pYES2-FLAG-URA expression vector; expressed in transfected cells; host or cells: Saccharomyces cerevisiae JS1256, plasmid pGAL-HsCERK
T2 sequence (Q8TCT0 1-537): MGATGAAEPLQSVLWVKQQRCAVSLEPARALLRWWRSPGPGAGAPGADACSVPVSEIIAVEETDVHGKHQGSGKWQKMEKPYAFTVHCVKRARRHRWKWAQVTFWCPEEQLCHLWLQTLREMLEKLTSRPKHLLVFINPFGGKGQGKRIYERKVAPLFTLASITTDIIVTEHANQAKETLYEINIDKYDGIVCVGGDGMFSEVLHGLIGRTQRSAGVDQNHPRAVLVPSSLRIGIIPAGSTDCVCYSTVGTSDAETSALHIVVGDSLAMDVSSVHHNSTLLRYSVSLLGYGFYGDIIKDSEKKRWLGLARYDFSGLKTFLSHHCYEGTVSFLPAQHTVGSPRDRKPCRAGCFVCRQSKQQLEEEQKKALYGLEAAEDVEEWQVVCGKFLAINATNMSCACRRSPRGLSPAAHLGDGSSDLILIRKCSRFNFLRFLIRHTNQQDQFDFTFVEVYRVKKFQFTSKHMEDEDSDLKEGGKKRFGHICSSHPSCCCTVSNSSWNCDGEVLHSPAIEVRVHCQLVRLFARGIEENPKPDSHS
Text: (§3) The yeast strains used in this study include JS1256 (MATa his3Δ1 leu2Δ0 met15Δ0 ura3Δ0) and CBY169 (MATα leu2-3,112 ura3-52 his4 trp1 rme1 dpl1Δ::TRP1 lcb3Δ::LEU2 lcb4Δ::kanMX lcb5Δ::kanMX) (the latter provided by Kyle Cunningham). The CBY169 strain was modified further by replacement of the PDR5 gene with a selectable marker (confers resistance to clonat) to generate strain KYA1 (MATα leu2-3,112 ura3-52 his4 trp1 rme1 dpl1Δ::TRP1 lcb3Δ::LEU2 lcb4Δ::kanMX lcb5Δ::kanMX pdr5Δ::natMX).
(§4) The plasmids pGAL-HsSPHK1, pGAL-HsSPHK2, pGAL-MmSphk1, pGAL-MmSphk1L277M, pGAL-MmSphk2, pGAL-HsCERK and pGAL-SK2_MOD used in this study were constructed by sub-cloning DNA encoding the indicated translational open reading frames into the pYES2-FLAG-URA expression vector (provided by Dr. Cungui Mao). The encoded proteins all have an amino terminal FLAG epitope tag ([…]) and their expression is under the control of the GAL1,10 promoter. Excepting human and mouse SphK2, the DNA sequences are synthetic (from GeneWiz LLC (South Plainfield, NJ)) and were optimized for expression in S. cerevisiae.

yeast strain CBY169 = experiment: toxicity for yeast (growth of strains without lipid kinase expression); details: yeast strain CBY169
Description: as §2
The salient limitations of the yeast assay are those of any cell-based assay. Namely, the assay reports EC50 values rather than Km, Vmax or kcat values of inhibitors, test compounds must not be markedly cytotoxic at the concentrations tested and compounds must accumulate to some extent in the yeast. Cytotoxicity is readily discerned by testing compounds for an effect on growth of strains without lipid kinase expression.

human SphK2 [2] = molecular target: T3, human SphK2 (Homo sapiens, UniProt Q9NRA0); experiment: yeast growth rescue assay, strain CBY169 expressing human SphK2; format: cell-based
T3 construct: full length (wild type hSK2); expressed in transfected cells; host or cells: Saccharomyces cerevisiae CBY169 or KYA1, plasmid pGAL-HsSPHK2
T3 sequence (Q9NRA0 1-618 isoform Q9NRA0-2): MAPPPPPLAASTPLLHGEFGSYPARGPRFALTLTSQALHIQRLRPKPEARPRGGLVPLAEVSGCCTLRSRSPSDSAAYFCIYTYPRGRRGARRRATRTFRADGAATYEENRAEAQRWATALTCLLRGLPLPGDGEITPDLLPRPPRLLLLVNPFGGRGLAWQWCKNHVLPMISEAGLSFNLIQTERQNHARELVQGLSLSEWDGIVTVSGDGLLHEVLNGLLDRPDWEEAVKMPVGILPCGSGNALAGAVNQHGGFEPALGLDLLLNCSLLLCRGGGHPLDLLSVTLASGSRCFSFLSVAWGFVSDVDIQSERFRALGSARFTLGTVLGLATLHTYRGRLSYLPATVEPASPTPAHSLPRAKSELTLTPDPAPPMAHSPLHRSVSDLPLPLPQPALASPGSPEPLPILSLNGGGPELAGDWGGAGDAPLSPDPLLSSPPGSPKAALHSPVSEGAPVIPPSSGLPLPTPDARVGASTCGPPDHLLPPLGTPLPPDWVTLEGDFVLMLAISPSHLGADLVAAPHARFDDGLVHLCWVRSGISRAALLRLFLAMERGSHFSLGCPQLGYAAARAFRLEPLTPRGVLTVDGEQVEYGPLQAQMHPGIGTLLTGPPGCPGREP
Text: as §1

sphingosine kinase = molecular target: sphingosine kinase; set-up: method as in PMID 21216217; details: cited from earlier work
human SphK1 [3] = molecular target: T1, human SphK1; experiment: yeast growth rescue assay, strain KYA1 (PDR5 deleted) expressing human SphK1; format: cell-based
Text: as §1, §2

human SphK2 [4] = molecular target: T3, human SphK2; experiment: yeast growth rescue assay, strain KYA1 (PDR5 deleted) expressing human SphK2; format: cell-based
Text: as §3, §4

[5] = system: human and rat SphK1 and SphK2; set-up: method as in PMID 26243740; details: cited from earlier work
mouse SphK1 L277M = molecular target: T4, mouse SphK1 L277M (Mus musculus, UniProt Q8CI15, L271M); experiment: yeast growth rescue assay, mouse SphK1 L277M mutant versus wild type mouse SphK1; format: cell-based
T4 construct: constructed by sub-cloning DNA encoding the indicated translational open reading frames into the pYES2-FLAG-URA expression vector; expressed in transfected cells; host or cells: Saccharomyces cerevisiae (CBY169, printed 'CYA169', and KYA1), plasmid pGAL-MmSphk1L277M
T4 sequence (Q8CI15 1-388 isoform Q8CI15-2 L277M): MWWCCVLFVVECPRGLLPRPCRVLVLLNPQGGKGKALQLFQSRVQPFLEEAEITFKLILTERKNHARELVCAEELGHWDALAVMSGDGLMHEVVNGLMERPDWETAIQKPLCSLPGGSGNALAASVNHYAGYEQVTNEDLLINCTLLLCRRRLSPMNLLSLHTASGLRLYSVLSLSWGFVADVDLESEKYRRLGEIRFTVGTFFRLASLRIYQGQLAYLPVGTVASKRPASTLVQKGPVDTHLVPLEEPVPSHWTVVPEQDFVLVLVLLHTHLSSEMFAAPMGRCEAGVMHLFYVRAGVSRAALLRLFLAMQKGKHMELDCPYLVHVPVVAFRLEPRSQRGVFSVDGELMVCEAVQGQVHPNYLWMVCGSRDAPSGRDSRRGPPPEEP
Text: as §1

[6] = molecular target: T5, human SphK2 deletion mutant 11–1 (12–137 & 371–436 deleted) (Homo sapiens, UniProt Q9NRA0, D462G/DEL396-461/E171D/G163S/G648A); experiment: yeast growth rescue, CBY169, human SphK2 deletion mutant 11–1; format: cell-based; details: mutant 11–1 (191 aa deleted)
T5 construct: a set of mutants lacking portions of the non-SphK1 overlapping amino acids of human SphK2; expressed in transfected cells; host or cells: Saccharomyces cerevisiae CBY169
T5 sequence (Q9NRA0 with tags, fused parts or gaps isoform Q9NRA0-2 G127S/E135D/DEL360-425/D426G/G612A): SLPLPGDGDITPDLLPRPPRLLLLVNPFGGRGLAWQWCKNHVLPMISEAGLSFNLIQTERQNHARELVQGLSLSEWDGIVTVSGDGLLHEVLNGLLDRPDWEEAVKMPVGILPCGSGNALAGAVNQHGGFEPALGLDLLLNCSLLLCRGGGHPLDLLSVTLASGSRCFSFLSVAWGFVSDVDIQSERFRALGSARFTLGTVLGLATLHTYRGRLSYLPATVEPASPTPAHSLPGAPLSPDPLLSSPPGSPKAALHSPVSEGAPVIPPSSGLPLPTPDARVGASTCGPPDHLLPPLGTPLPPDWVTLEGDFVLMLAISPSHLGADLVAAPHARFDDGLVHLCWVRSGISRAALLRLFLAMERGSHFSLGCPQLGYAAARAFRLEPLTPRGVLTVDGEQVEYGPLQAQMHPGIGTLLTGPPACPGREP
Text: While some of the nucleotide changes were translationally silent, the altered human SphK2 (termed ‘SK2_MOD’) DNA encoded five amino acid changes (Glu71Asp, Gly138Ser, Glu146Asp, Glu437Gly, Gly623Ala).

human SphK2 [7] = molecular target: T3, human SphK2; experiment: LCMS of phospho-LCBs in yeast expressing human SphK2; format: cell-based; details: yeast with pGAL-HsSPHK2, galactose media, 6 hours, inhibitor 300 nM
Description: Cell pellets (approximately 5 million cells) were mixed with 2 mL of a 3:1 methanol/chloroform mixture and transferred to a capped glass vial. To this suspension was added 10 μL of internal standard solution containing 1 μM d7S1P (deuterated sphingosine 1-phosphate) (Avanti Polar Lipids). The mixture was homogenized in a bath sonicator for 10 min and incubated at 48°C for 16 h. The mixture was then cooled to room temperature and mixed with 200 μL of 1 M KOH in methanol. The samples were again sonicated and incubated at 37°C for 2 h. After this time, the samples were neutralized through the addition of 20 μL of glacial acetic acid and transferred to 2 mL microcentrifuge tubes. […] Immediately before LCMS analysis, the material was dissolved in 300 μL of methanol, clarified by centrifuged at 12,000 x g for 12 min at 4°C, and analyzed by LCMS.
Analyses were performed using a triple quadrupole mass spectrometer (Sciex 4000 Q-Trap) coupled to a Shimadzu LC-20AD liquid chromatography system. […] Sphingolipids were detected using MRM (multiple reaction monitoring) methods as follows: d7S1P (387.4→271.3); dhS1P (382.4→266.4); dhSph (dihydroSphingosine) (302.5→60.0); phytoS1P (398.3→300.4) and phytosSph (318.4→282.3).
Yeast were cultured for 6 hours in the indicated media; inhibitors were present at 300 nM. Sphingolipids in cell pellets were analyzed by LCMS (see Methods for details).

CCCCCCCc1ccc(NC(=O)[C@@H](N)CCO)cc1 [9ab]
Ki (recombinant human SphK1): 1400 to 1700 nM | EC50 (human SphK1 [1]): 900 nM

O=C(Nc1nc2ccc(NC(=O)C34CC5CC(CC(C5)C3)C4)cc2s1)c1ccccc1 [NVP-231]
rescue of growth (human CerK): growth was restored in a dose dependent fashion

Oc1ccc(Nc2nc(-c3ccc(Cl)cc3)cs2)cc1 [SKI-II]
concentrations at which toxic for yeast (yeast strain CBY169): above 3 μM | rescue of growth (human SphK2 [2]): failed to rescue growth | rescue of growth in galactose media (human SphK1 [1]): failed to rescue growth | Ki (sphingosine kinase): 12000 to 30000 nM | rescue of growth (human SphK1 [3]): failed to rescue growth | rescue of growth (human SphK2 [4]; strain KYA1 expressing human SphK2): failed to rescue growth

CCCCCOc1ccc2cc(-c3noc([C@@H]4[C@@H](O)CCN4C(=N)N)n3)ccc2c1 [SLC5111312]
concentrations at which toxic for yeast (yeast strain CBY169): 2000 to 3000 nM | rescue of growth (human SphK2 [2]): rescued growth | potency at SphK1 versus SphK2 [5]: equipotent | rescue of growth in galactose media (human SphK1 [1]): restored full growth | EC50 values for mutant mouse enzyme versus human enzyme (mouse SphK1 L277M; mouse SphK1 L277M versus human SphK1, yeast growth rescue): similar | potency at mutant (L277M) versus wild type mouse SphK1 (mouse SphK1 L277M; yeast growth rescue): distinctly more potent

CCCCCCCCOc1ccc(-c2noc([C@@H]3CCCN3C(=N)N)n2)cc1C(F)(F)F [SLM6031434]
concentrations at which toxic for yeast (yeast strain CBY169): 2000 to 3000 nM | loss of potency [6]: ~3 fold | rescue of growth (human SphK2 [2]): rescued growth | phospho-LCB levels (human SphK2 [7]): decreased | potency in CBY169 vs. KYA1 strains (PDR5p status) (human SphK2 [4]; presence (CBY169) or absence (KYA1) of PDR5): the same; also recorded: not different
